This passage reports IC50 and Ki results from ChEMBL document CHEMBL1909046, “DrugMatrix in vitro pharmacology data”.

The target in one data set is T1, Cytochrome P450 1A2 (Homo sapiens, UniProt P05177). Note: in other assays of this panel Not Active means under 50% inhibition at 10 µM.
T1 sequence (P05177 whole entry): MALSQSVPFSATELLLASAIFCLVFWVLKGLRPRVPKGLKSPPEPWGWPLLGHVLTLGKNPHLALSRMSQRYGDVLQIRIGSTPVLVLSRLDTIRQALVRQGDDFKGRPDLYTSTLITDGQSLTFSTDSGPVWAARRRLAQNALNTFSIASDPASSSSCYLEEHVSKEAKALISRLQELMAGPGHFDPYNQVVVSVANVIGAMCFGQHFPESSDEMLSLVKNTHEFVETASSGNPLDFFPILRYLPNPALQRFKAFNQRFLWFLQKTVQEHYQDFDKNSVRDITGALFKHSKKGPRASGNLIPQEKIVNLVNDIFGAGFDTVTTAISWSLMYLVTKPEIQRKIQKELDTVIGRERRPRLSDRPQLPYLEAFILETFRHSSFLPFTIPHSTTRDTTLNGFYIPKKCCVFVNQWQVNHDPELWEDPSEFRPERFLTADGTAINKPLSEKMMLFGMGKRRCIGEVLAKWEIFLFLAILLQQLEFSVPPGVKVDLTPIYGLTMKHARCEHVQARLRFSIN
The conditions noted are these: bti-tn-5b1-4.

Data set [1] has as its target 5-hydroxytryptamine receptor 2B (Homo sapiens, UniProt P41595). The format is cell membranes, CHO-K1, Membrane. The conditions noted are these: cho-k1. Note: in other assays of this panel Not Active means under 50% inhibition at 10 µM.
For another data set, the target named is Cytochrome P450 2C9 (Homo sapiens, UniProt P11712). The conditions noted are these: bti-tn-5b1-4. Note: in other assays of this panel Not Active means under 50% inhibition at 10 µM.
Cytochrome P450 2C9, sequence (P11712 whole entry): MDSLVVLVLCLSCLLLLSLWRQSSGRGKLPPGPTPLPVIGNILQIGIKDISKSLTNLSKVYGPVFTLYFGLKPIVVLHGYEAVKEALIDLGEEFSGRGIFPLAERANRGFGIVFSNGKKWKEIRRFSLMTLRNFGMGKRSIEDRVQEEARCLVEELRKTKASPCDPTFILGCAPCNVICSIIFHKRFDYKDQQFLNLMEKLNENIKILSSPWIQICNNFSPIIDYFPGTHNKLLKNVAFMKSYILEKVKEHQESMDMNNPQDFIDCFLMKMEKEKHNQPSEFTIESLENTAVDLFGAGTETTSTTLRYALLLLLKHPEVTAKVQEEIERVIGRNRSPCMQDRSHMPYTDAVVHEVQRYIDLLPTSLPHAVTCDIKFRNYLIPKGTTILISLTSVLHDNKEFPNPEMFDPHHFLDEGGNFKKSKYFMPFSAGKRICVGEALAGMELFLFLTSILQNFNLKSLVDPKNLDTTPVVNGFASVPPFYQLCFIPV
Another data set has as its target Cytochrome P450 2D6 (Homo sapiens, UniProt P10635). The conditions noted are these: bti-tn-5b1-4. Note: in other assays of this panel Not Active means under 50% inhibition at 10 µM.
Data set [2] addresses Sodium-dependent noradrenaline transporter (Homo sapiens, UniProt P23975). Put plainly: DRUGMATRIX: Norepinephrine Transporter radioligand binding (ligand: [125I] RTI-55). The format is cell membranes, MDCK, Membrane. The conditions noted are these: Not Active = under 50% inhibition at 10 µM.
In the next data set the target is T2, Glucocorticoid receptor (Homo sapiens, UniProt P04150). Note: in other assays of this panel Not Active means under 50% inhibition at 10 µM.
T2 sequence (P04150 whole entry): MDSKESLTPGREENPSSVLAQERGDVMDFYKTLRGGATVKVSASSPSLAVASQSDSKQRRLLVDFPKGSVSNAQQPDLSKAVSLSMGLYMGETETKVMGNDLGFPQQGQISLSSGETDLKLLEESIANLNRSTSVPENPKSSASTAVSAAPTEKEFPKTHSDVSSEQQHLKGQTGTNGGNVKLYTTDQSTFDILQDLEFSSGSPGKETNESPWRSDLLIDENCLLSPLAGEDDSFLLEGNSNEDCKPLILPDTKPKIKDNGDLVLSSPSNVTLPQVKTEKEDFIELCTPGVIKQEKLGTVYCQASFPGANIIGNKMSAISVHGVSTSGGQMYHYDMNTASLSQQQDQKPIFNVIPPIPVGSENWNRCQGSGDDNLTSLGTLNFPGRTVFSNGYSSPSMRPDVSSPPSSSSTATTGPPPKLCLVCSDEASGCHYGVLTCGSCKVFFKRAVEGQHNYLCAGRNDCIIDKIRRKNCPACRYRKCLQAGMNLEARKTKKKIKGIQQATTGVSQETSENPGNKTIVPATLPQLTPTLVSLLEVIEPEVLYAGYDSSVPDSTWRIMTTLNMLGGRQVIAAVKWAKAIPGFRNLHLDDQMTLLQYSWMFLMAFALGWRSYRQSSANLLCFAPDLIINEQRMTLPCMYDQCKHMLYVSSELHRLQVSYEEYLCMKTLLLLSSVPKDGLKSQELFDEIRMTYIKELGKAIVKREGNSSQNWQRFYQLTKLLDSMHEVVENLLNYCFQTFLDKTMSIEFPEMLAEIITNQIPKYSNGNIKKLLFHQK
Conditions: hela s3.

Another data set concerns the target T3, Estrogen receptor (Homo sapiens, UniProt P03372). Note: in other assays of this panel Not Active means under 50% inhibition at 10 µM.
T3 sequence (P03372 whole entry): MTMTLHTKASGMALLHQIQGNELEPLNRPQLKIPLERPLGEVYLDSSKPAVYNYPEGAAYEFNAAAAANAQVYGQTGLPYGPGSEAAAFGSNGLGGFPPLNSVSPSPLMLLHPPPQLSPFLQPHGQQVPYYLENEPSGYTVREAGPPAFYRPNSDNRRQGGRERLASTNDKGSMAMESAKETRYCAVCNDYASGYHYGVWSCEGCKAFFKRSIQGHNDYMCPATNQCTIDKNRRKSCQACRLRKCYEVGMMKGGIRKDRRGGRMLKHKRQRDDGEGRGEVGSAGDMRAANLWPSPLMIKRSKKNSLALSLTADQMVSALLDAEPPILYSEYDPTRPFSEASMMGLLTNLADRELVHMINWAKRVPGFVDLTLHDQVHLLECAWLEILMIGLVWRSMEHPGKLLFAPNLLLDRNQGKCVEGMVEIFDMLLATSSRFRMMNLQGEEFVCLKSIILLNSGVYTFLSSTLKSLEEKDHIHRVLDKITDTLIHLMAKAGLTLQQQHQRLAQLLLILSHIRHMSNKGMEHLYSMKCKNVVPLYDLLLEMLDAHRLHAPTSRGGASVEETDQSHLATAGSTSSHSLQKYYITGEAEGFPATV
The conditions noted are these: sf9.

Cytochrome P450 2D6, sequence (P10635 whole entry): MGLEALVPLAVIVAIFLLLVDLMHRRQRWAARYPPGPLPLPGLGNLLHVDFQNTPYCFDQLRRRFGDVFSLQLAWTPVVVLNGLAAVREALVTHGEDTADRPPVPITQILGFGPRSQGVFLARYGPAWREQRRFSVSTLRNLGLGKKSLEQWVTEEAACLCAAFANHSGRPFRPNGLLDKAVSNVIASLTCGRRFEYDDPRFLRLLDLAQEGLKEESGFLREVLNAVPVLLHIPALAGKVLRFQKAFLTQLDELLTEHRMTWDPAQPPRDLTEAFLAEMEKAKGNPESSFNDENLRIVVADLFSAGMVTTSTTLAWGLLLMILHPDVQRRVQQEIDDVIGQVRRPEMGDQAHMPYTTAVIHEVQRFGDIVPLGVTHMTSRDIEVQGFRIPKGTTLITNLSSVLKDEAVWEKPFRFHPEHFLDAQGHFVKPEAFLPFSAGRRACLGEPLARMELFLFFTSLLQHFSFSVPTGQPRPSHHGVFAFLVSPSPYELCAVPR
5-hydroxytryptamine receptor 2B, sequence (P41595 whole entry): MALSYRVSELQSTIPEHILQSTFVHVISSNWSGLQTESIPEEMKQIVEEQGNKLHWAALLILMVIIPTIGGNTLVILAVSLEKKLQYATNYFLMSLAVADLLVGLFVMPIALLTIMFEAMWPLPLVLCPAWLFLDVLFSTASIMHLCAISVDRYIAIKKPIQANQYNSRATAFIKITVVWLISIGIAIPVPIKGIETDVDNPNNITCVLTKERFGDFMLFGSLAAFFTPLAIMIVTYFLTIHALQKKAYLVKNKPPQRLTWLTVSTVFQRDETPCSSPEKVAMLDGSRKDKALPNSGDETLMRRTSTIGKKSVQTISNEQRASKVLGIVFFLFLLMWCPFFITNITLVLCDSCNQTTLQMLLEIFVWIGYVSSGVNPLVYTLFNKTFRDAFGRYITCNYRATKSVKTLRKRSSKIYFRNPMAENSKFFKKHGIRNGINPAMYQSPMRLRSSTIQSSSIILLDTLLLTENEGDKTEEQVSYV
Sodium-dependent noradrenaline transporter, sequence (P23975 whole entry): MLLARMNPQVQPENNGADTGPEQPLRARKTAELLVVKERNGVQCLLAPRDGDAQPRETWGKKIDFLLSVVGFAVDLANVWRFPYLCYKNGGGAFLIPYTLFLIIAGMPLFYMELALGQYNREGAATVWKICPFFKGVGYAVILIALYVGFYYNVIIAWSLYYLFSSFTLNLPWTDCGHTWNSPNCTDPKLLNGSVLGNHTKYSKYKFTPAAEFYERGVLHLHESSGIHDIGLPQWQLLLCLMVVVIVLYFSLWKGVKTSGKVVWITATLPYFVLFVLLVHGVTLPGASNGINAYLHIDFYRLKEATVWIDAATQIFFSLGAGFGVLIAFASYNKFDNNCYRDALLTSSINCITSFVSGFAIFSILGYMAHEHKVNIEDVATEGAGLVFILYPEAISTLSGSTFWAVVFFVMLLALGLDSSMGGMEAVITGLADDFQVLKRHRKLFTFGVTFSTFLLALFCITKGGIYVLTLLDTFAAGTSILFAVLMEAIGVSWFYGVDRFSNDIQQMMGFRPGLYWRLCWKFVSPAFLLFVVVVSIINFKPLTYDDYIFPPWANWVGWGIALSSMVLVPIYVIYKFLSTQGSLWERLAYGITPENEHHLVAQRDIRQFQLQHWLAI

On to `Cc1cn([C@H]2C=C[C@@H](CO)O2)c(=O)[nH]c1=O` [STAVUDINE], for which the IC50 result (against Cytochrome P450 1A2; in data set [1]; against Cytochrome P450 2C9; against Cytochrome P450 2D6; in data set [2] (mdck)) was “Not Active” each time. Further, the inhibition constant (Ki) entry on Cytochrome P450 1A2, at Cytochrome P450 2C9 and on Cytochrome P450 2D6 was “Not Active” in each case.

In the case of `C#C[C@]1(O)CC[C@H]2[C@@H]3[C@H](C)CC4=C(CCC(=O)C4)[C@H]3CC[C@@]21C` [TIBOLONE], the IC50 entry (against Cytochrome P450 1A2; in data set [1]; at Cytochrome P450 2C9; on Cytochrome P450 2D6; in data set [2] (mdck)) was “Not Active” in each case. Moreover, the Ki entry on Cytochrome P450 1A2, on Cytochrome P450 2C9 and on Cytochrome P450 2D6 was “Not Active” each time.

Take `O=C(c1ccccc1)c1ccc2n1CCC2C(=O)O` (stereo not drawn) [KETOROLAC]: the IC50 entry (on Cytochrome P450 1A2; in data set [1]; against Cytochrome P450 2C9; on Cytochrome P450 2D6; in data set [2] (mdck)) was “Not Active” each time. Besides, the Ki result at Cytochrome P450 1A2, on Cytochrome P450 2C9 and on Cytochrome P450 2D6 was “Not Active” in each case.

For `CCN(CC)N=O` [N-NITROSODIETHYLAMINE], the IC50 result (on Cytochrome P450 1A2; in data set [1]; against Cytochrome P450 2C9; on Cytochrome P450 2D6; in data set [2] (mdck)) was “Not Active” in each case. The Ki result on Cytochrome P450 1A2, at Cytochrome P450 2C9 and on Cytochrome P450 2D6 was “Not Active” each time.

For `CO[C@@]12[C@H](COC(N)=O)C3=C(C(=O)C(C)=C(N)C3=O)N1C[C@@H]1N[C@@H]12` [MITOMYCIN], the IC50 result (on Cytochrome P450 1A2; on Glucocorticoid receptor; in data set [1]; on Cytochrome P450 2C9; on Cytochrome P450 2D6; in data set [2] (mdck)) was “Not Active” each time. Moreover, the Ki result on Cytochrome P450 1A2, at Cytochrome P450 2C9 and at Cytochrome P450 2D6 was “Not Active” throughout.

Turning to `CCN1CCCC1CNC(=O)c1cc(S(N)(=O)=O)ccc1OC` (stereo not drawn) [SULPIRIDE], the half-inhibitory concentration (IC50) result (against Cytochrome P450 1A2; at Glucocorticoid receptor; in data set [1]; at Cytochrome P450 2C9; against Cytochrome P450 2D6; in data set [2] (mdck)) was “Not Active” each time. For the same molecule, the Ki entry on Cytochrome P450 1A2, at Cytochrome P450 2C9 and at Cytochrome P450 2D6 was “Not Active” each time.

In the case of `Oc1ccc(/C=C/c2cc(O)cc(O)c2)cc1` [RESVERATROL], the IC50 (as a rule, the concentration that inhibits the measured activity by half) in data set [1] is “Not Active”; at Cytochrome P450 2D6 it was “Not Active”; in data set [2] (read-out: IC50), 2310 nM; against Estrogen receptor, “Not Active”. For the same molecule, the Ki (commonly the dissociation constant of the complex between target and ligand, obtained from inhibition or displacement) was “Not Active” at Cytochrome P450 2D6 and 2290 nM in data set [2] (read-out: Ki).

For `O=C(OC[C@H]1O[C@@H](OC(=O)c2cc(O)c(O)c(OC(=O)c3cc(O)c(O)c(O)c3)c2)[C@H](OC(=O)c2cc(O)c(O)c(OC(=O)c3cc(O)c(O)c(O)c3)c2)[C@@H](OC(=O)c2cc(O)c(O)c(OC(=O)c3cc(O)c(O)c(O)c3)c2)[C@@H]1OC(=O)c1cc(O)c(O)c(OC(=O)c2cc(O)c(O)c(O)c2)c1)c1cc(O)c(O)c(OC(=O)c2cc(O)c(O)c(O)c2)c1` [TANNIC ACID], the IC50 entry (at Glucocorticoid receptor; in data set [1]; against Cytochrome P450 2D6; in data set [2] (mdck)) was “Not Active” in each case. On Cytochrome P450 2D6, the inhibitory constant (Ki) entry is “Not Active”.

On to `CC(Cl)(Cl)Cl` [TRICHLOROETHANE], for which the concentration for half-maximal inhibition (IC50) entry (on Cytochrome P450 1A2; in data set [1]; at Cytochrome P450 2C9; on Cytochrome P450 2D6; in data set [2] (mdck)) was “Not Active” in each case. Also, the Ki entry at Cytochrome P450 1A2, on Cytochrome P450 2C9 and at Cytochrome P450 2D6 was “Not Active” in each case.

Regarding `C=CCc1ccc2c(c1)OCO2` [SAFROLE], the IC50 entry (on Glucocorticoid receptor; in data set [1]; at Cytochrome P450 2C9; against Cytochrome P450 2D6; in data set [2] (mdck)) was “Not Active” throughout. The Ki entry at Cytochrome P450 2C9 and on Cytochrome P450 2D6 was “Not Active” throughout.

In the case of `O=C1CC[C@@]2(O)[C@H]3Cc4ccc(O)c5c4[C@@]2(CCN3CC2CC2)[C@H]1O5` [NALTREXONE], the IC50 result (against Cytochrome P450 1A2; against Glucocorticoid receptor; in data set [1]; against Cytochrome P450 2C9; in data set [2] (mdck)) was “Not Active” throughout. In addition, the Ki result at Cytochrome P450 1A2 and on Cytochrome P450 2C9 was “Not Active” throughout.

Turning to `CS(=O)(=O)c1ccc(C2=C(c3ccccc3)C(=O)OC2)cc1` [ROFECOXIB], the IC50 entry (at Cytochrome P450 1A2; against Glucocorticoid receptor; in data set [1]; against Cytochrome P450 2C9; on Cytochrome P450 2D6; in data set [2] (mdck)) was “Not Active” each time. Besides, the Ki entry at Cytochrome P450 1A2, on Cytochrome P450 2C9 and on Cytochrome P450 2D6 was “Not Active” throughout.

On to `O=C(O)c1cc(/N=N/c2ccc(S(=O)(=O)Nc3ccccn3)cc2)ccc1O` [SULFASALAZINE], for which the IC50 entry (on Cytochrome P450 1A2; against Glucocorticoid receptor; in data set [1]; against Cytochrome P450 2C9; against Cytochrome P450 2D6; in data set [2] (mdck)) was “Not Active” in each case. For the same molecule, the Ki entry on Cytochrome P450 1A2, at Cytochrome P450 2C9 and at Cytochrome P450 2D6 was “Not Active” in each case.

For `CN(C)CCC=C1c2ccccc2COc2ccccc21` [DOXEPIN], the IC50 result against Cytochrome P450 1A2, against Glucocorticoid receptor, against Cytochrome P450 2C9 and at Cytochrome P450 2D6 was “Not Active” in each case. Moreover, the Ki result on Cytochrome P450 1A2, on Cytochrome P450 2C9 and at Cytochrome P450 2D6 was “Not Active” in each case.

Turning to `CC#C[C@]1(O)CC[C@H]2[C@@H]3CCC4=CC(=O)CCC4=C3[C@@H](c3ccc(N(C)C)cc3)C[C@@]21C` [MIFEPRISTONE], the IC50 entry (at Cytochrome P450 1A2; in data set [1]; against Cytochrome P450 2C9; at Cytochrome P450 2D6; in data set [2] (mdck)) was “Not Active” in each case. For the same molecule, the Ki entry at Cytochrome P450 1A2, on Cytochrome P450 2C9 and on Cytochrome P450 2D6 was “Not Active” throughout.

Turning to `C[C@]12CCC(=O)C[C@@H]1CC[C@@H]1[C@@H]2CC[C@]2(C)[C@@H](O)CC[C@@H]12` [STANOLONE], the IC50 entry (against Cytochrome P450 1A2; against Glucocorticoid receptor; in data set [1]; against Cytochrome P450 2C9; on Cytochrome P450 2D6; in data set [2] (mdck)) was “Not Active” each time. Moreover, the Ki entry on Cytochrome P450 1A2, on Cytochrome P450 2C9 and on Cytochrome P450 2D6 was “Not Active” in each case.

Regarding `C1CCN2C[C@@H]3C[C@@H](CN4CCCC[C@@H]34)[C@H]2C1` [SPARTEINE], the IC50 entry (at Glucocorticoid receptor; in data set [1]; in data set [2] (mdck)) was “Not Active” throughout.
